In patent publication US10167262B2, “Herbicidal substituted 3-arylpyrazoles” (FMC CORPORATION, priority 2014, dated 2019):

Assays:
Assay type in all cases: in vivo
[1] = test system: blackgrass (Alopecurus myosuroides); assay: Test C pre-/postemergence greenhouse test, plant response rating 0-100; conditions: Alopecurus myosuroides, post-emergence, Postemergence
Outline: (§1)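 Pre-emergence soil and post-emergence foliar sprays were applied simultaneously to seeded loam–sand pots and to 1–4-leaf plants in peat medium; greenhouse holding lasted 13–15 days, then plants were scored visually from 0 (no effect) to 100 (complete control).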

[2] = test system: galium (catchweed bedstraw, Galium aparine); assay: as above; conditions: Galium, post-emergence, Postemergence
Outline: as §1

[3] = test system: giant foxtail (Setaria faberii); assay: as above; conditions: Setaria faberi, post-emergence, Postemergence
Outline: as §1

[4] = test system: johnsongrass (Sorghum halepense); assay: as above; conditions: Sorghum halepense, post-emergence, Postemergence
Outline: as §1

[5] = test system: lambsquarters (Chenopodium album); assay: as above; conditions: Chenopodium album, post-emergence, Postemergence
Outline: as §1

[6] = test system: large (Lg) crabgrass (Digitaria sanguinalis); assay: as above; conditions: Digitaria sanguinalis, post-emergence, Postemergence
Outline: as §1

[7] = test system: morningglory (Ipomoea coccinea); assay: as above; conditions: Ipomoea, post-emergence, Postemergence
Outline: as §1

soybean (Glycine max) = assay: as above; conditions: Glycine max, post-emergence, Postemergence
Outline: as §1

[8] = test system: winter wheat (Triticum aestivum); assay: as above; conditions: Triticum aestivum, post-emergence, Postemergence
Outline: as §1

[9] = test system: yellow nutsedge (Cyperus esculentus); assay: as above; conditions: Cyperus, post-emergence, Postemergence
Outline: as §1

[10] = test system: chickweed (common chickweed, Stellaria media); assay: Test C postemergence greenhouse test, plant response rating 0-100; conditions: Stellaria media, post-emergence
Outline: (§2)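 Postemergence spray onto 1–4-leaf potted seedlings, greenhouse incubation 13–15 days. Visual percent-control rating (0–100) against untreated plants.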

kochia (Kochia scoparia) = assay: as above; conditions: Bassia scoparia, post-emergence
Outline: as §2

wild oat (Avena fatua) = assay: as above; conditions: Avena fatua, post-emergence
Outline: as §2

CCCn1cc(C(=O)c2ccccc2)c(-c2cc(Cl)cc(Cl)c2)n1 [Compound 61, [3-(3,5-dichlorophenyl)-1-propyl-1H-pyrazol-4-yl]phenylmethanone] showed a pest or weed control at 31 g/ha ([1]; 31 g ai/ha, read-out: Plant response rating (0 to 100), Blackgrass) of 0%, a pest or weed control at 62 g/ha ([1]; 62 g ai/ha, read-out: Plant response rating (0 to 100), Blackgrass) of 0% and a pest or weed control at 125 g/ha ([1]; 125 g ai/ha, read-out: Plant response rating (0 to 100), Blackgrass) of 0%. The pest or weed control at 250 g/ha ([1]; 250 g ai/ha, scale 0 to 100) was 0%, the pest or weed control at 31 g/ha ([2]; 31 g ai/ha, read-out: Plant response rating (0 to 100), Galium) was 0% and the pest or weed control at 62 g/ha ([2]; 62 g ai/ha, read-out: Plant response rating (0 to 100), Galium) was 0%. It also gave a pest or weed control at 125 g/ha ([2]; 125 g ai/ha, read-out: Plant response rating (0 to 100), Galium) of 0%, a pest or weed control at 250 g/ha ([2]; 250 g ai/ha, scale 0 to 100) of 0% and a pest or weed control at 31 g/ha ([3]; 31 g ai/ha, read-out: Plant response rating (0 to 100), Foxtail, Giant) of 5%. For the same compound, the pest or weed control at 62 g/ha ([3]; 62 g ai/ha, read-out: Plant response rating (0 to 100), Foxtail, Giant) was 5%, the pest or weed control at 125 g/ha ([3]; 125 g ai/ha, read-out: Plant response rating (0 to 100), Foxtail, Giant) was 5% and the pest or weed control at 250 g/ha ([3]; 250 g ai/ha, scale 0 to 100) was 10%. The pest or weed control at 62 g/ha ([4]; 62 g ai/ha, read-out: Plant response rating (0 to 100), Johnsongrass) was 10%, the pest or weed control at 125 g/ha ([4]; 125 g ai/ha, read-out: Plant response rating (0 to 100), Johnsongrass) was 10% and the pest or weed control at 250 g/ha ([4]; 250 g ai/ha, scale 0 to 100) was 10%. For the same compound, the pest or weed control at 62 g/ha ([5]; 62 g ai/ha, read-out: Plant response rating (0 to 100), Lambsquarters) was 40%, the pest or weed control at 125 g/ha ([5]; 125 g ai/ha, read-out: Plant response rating (0 to 100), Lambsquarters) was 55% and the pest or weed control at 250 g/ha ([5]; 250 g ai/ha, scale 0 to 100) was 55%. It also gave a pest or weed control at 31 g/ha ([6]; 31 g ai/ha, read-out: Plant response rating (0 to 100), Crabgrass, Large) of 5%, a pest or weed control at 62 g/ha ([6]; 62 g ai/ha, read-out: Plant response rating (0 to 100), Crabgrass, Large) of 5% and a pest or weed control at 125 g/ha ([6]; 125 g ai/ha, read-out: Plant response rating (0 to 100), Crabgrass, Large) of 5%. The pest or weed control at 250 g/ha ([6]; 250 g ai/ha, scale 0 to 100) was 5%, the pest or weed control at 62 g/ha ([7]; 62 g ai/ha, read-out: Plant response rating (0 to 100), Morningglory) was 0% and the pest or weed control at 125 g/ha ([7]; 125 g ai/ha, read-out: Plant response rating (0 to 100), Morningglory) was 0%. The pest or weed control at 250 g/ha ([7]; 250 g ai/ha, scale 0 to 100) was 0%, the plant injury at 62 g/ha (soybean (Glycine max); 62 g ai/ha, read-out: Plant response rating (0 to 100), Soybean) was 0% and the plant injury at 125 g/ha (soybean (Glycine max); 125 g ai/ha, read-out: Plant response rating (0 to 100), Soybean) was 10%. The plant injury at 250 g/ha (soybean (Glycine max); 250 g ai/ha, scale 0 to 100) was 15%, the plant injury at 62 g/ha ([8]; 62 g ai/ha, read-out: Plant response rating (0 to 100), Wheat) was 0% and the plant injury at 125 g/ha ([8]; 125 g ai/ha, read-out: Plant response rating (0 to 100), Wheat) was 0%. For the same compound, the plant injury at 250 g/ha ([8]; 250 g ai/ha, scale 0 to 100) was 0%, the pest or weed control at 62 g/ha ([9]; 62 g ai/ha, read-out: Plant response rating (0 to 100), Nutsedge, Yellow) was 0% and the pest or weed control at 125 g/ha ([9]; 125 g ai/ha, read-out: Plant response rating (0 to 100), Nutsedge, Yellow) was 5%. The pest or weed control at 250 g/ha ([9]; 250 g ai/ha, scale 0 to 100) was 5%, the pest or weed control at 31 g/ha ([10]; 31 g ai/ha) was 20% and the pest or weed control at 125 g/ha ([10]; 125 g ai/ha) was 75%. The pest or weed control at 250 g/ha ([10]; 250 g ai/ha, scale 0 to 100) was 75%, the pest or weed control at 62 g/ha (kochia (Kochia scoparia); 62 g ai/ha) was 40% and the pest or weed control at 125 g/ha (kochia (Kochia scoparia); 125 g ai/ha) was 45%. For the same compound, the pest or weed control at 250 g/ha (kochia (Kochia scoparia); 250 g ai/ha, scale 0 to 100) was 50%, the pest or weed control at 62 g/ha (wild oat (Avena fatua); 62 g ai/ha) was 0% and the pest or weed control at 125 g/ha (wild oat (Avena fatua); 125 g ai/ha) was 0%. For the same compound, the pest or weed control at 250 g/ha (wild oat (Avena fatua); 250 g ai/ha, scale 0 to 100) was 0%.
